Legend:
[1] = Inhibition of microtubule depolymerization in rat A10 cells after 18 hrs by immunofluorescence assay; assay type: cell-based
[2] = Antiproliferative activity against human MDA-MB-435 cells by SRB assay
A10 = assay: Inhibition of microtubule depolymerization in rat A10 cells at 75 uM after 18 hrs by immunofluorescence assay; assay type: cell-based

| EC50 [1] [µM] | pEC50 [1] | IC50 [2] [µM] | SMILES | inhibition (A10) [%] |
| --- | --- | --- | --- | --- |
| 7 | 5.15 | 3.24 | CCOC(=O)c1[nH]c(Br)c(-c2cccc3ccccc23)c1Br | – |
| > 75 | 3.82 | 12.9 | CCOC(=O)c1[nH]c(Br)c(-c2cc(OC)c(OC)c(OC)c2)c1Br | – |
| 14 | 4.85 | 2.64 | CCOC(=O)c1[nH]c(Br)c(-c2cc(OC)c(OC)cc2Br)c1Br | – |
| > 75 | 3.82 | 1.99 | CCOC(=O)c1[nH]c(Br)c(-c2ccc3cc(OCC)ccc3c2)c1Br | – |
| 17.8 | 4.75 | 1.98 | CCOC(=O)c1[nH]c(Br)c(-c2c[nH]c3ccccc23)c1Br | – |
| 14.1 | 4.85 | – | CCOC(=O)c1[nH]c(Br)c(-c2ccc(OC)c(F)c2)c1Br | – |
| > 75 | 3.82 | – | CCOC(=O)c1[nH]c(Br)c(-c2ccc(Cl)cc2)c1Br | – |
| 27.1 | 4.57 | – | CCOC(=O)c1[nH]c(Br)c(-c2ccc(OC(F)(F)F)cc2)c1Br | – |

The remaining lines, values behind:

| SMILES | EC50 [1] [µM] | pEC50 [1] | IC50 [2] [µM] | inhibition (A10) [%] |
| --- | --- | --- | --- | --- |
| CCOC(=O)c1[nH]c(Br)c(-c2ccc(OC)cc2)c1Br | 7 | 5.15 | – | – |
| CCOC(=O)c1[nH]c(Br)c(-c2ccc3c(c2)OCO3)c1Br | 29.7 | 4.53 | – | – |
| CCOC(=O)c1[nH]c(Br)c(-c2ccc(SC)cc2)c1Br | 18.5 | 4.73 | – | – |
| CCOC(=O)c1[nH]c(Br)c(-c2cccc(OC)c2)c1Br | 2.4 | 5.62 | – | – |
| CCOC(=O)c1[nH]c(Br)c(-c2ccccc2)c1Br | > 75 | 3.82 | 10.3 | – |
| CCOC(=O)c1[nH]c(Br)c(-c2ccc3c(c2)OCCO3)c1Br | 20.9 | 4.68 | 4.36 | – |
| CCOC(=O)c1[nH]c(Br)c(-c2ccc(Br)cc2)c1Br | 94 | 4.03 | – | 40 |
| CCOC(=O)c1[nH]c(Br)c(-c2ccc(Cl)c(Cl)c2)c1Br | 9.9 | 5 | – | – |
| CCOC(=O)c1[nH]c(Br)c(-c2ccc(C)cc2)c1Br | > 75 | 3.82 | 2.24 | – |

— ChEMBL document CHEMBL3132861 (Medchemcomm, 2013)
